Counter-ions that a name gives are not always drawn. Like-named read-outs stand apart in the source and are kept apart here.
What was measured:
Assay type in all cases: in vivo
[1] = Suppression of food intake in mice; conditions: Mus musculus, male ICR mice, 50 mg/kg oral, given 0.5 hour before feeding, food intake of control animals = 100%, (NS) = not statistically significant
Method: Male ICR mice, 7 weeks old, were acclimatised to six-hours-a-day feeding (CE-2 powder, Clea Japan) for 7 days and those animals showing a constant food intake were used in groups of 6 individuals. Each test compound was dissolved in a 5% aqueous solution of gum arabic and orally administered to mice at a dose level of 50 mg/kg as compound (I) at 0.5 hour before feeding on the 8th day. Control animals received a 5% solution of gum arabic only. Each figure in the table is the percent food intake with the food intake of control animals being taken as 100%.
In the table, the figures accompanied by NS in parentheses mean that the difference from control was not statistically significant. All other figures were significant at from P<0.02 to P<0.001.

[2] = Inventors' study of antiobesity, antidiabetic and anorectic effect of prior-art compounds; conditions: according to the inventors' study; result in words
From the text: South African Patent No. 67/3108 describes the anti- depressive activity of 1-(4-chlorophenylthio)-2-aminopropane of the formula: [drawing 8] but this patent also says nothing about antiobesity or antidiabetic action. […] In contrast, the compounds of this invention exert strong and long-lasting antiobesity and antidiabetic effects because of their having the particular substituent (halogen) at the particular (para) position of the benzene ring and having the particular secondary amine-type structure.

[3] = Suppression of food intake in rats; conditions: male Sprague-Dawley rats fasted for 24 hours, 20 mg/kg by oral gavage, food given after 0.5 hour; control = 100%; ** P<0.01, * P<0.05
Method: Male 7-week-old rats of Sprague-Dawley strain were fasted for 24 hours and assigned to groups of 6 animals. A solution of .20 mg/kg of each test compound in distilled water was administered by oral gavage and after 0.5 hour, food (CE-2 powder) was given. The food intake in each group was measured at 1 hour and 2 hours thereafter and the results were compared with the food intake of control animals given distilled water only. The figures in the table denote the food intake percents, with the food intake of control animals being taken as 100%. By the term "gavage" is meant compulsory feeding.

fatty acid synthesis = assay: Inhibition of fatty acid synthesis (glucose-U-14C incorporation into fatty acid fractions); conditions: Rattus norvegicus, Sprague-Dawley rats, 20 mg/kg oral, glucose-U-14C 30 minutes later, sacrificed after 60 minutes, versus distilled water control
Method: Male 7-week-old Sprague-Dawley rats were acclimatised to 2-hours-a-day feeding (CE-2 powder, Clea Japan) for 10 days and assigned to groups of 5 animals. The animals were orally given 20 mg/kg of l-(4-chlorophenylthio)-2-methylaminopropane fumarate as dissolved in distilled water, and,30 minutes thereafter, glucose-U-^14C (85 pCi/3 g/kg) was orally administered. After 60 minutes, each animal was sacrificed and the radioactivities incorporated into the fatty acid fractions of the liver and the epididymal adipose tissues were determined.

[4] = 1 h, read-out: Food intake (%) 1 hour after administration
[5] = read-out: Food intake (%) 0.5 hour after administration

Row | Compound | response vs control in vivo at 50 mg/kg [1, 4] [%] | response vs control in vivo at 50 mg/kg [1, 5] [%] | anorectic effect [2] | Food intake (%) 1 hour after administration [3] | Food intake (%) 2 hours after administration [3] | inhibition at 20 mg/kg (fatty acid synthesis; adipose tissues, read-out: relative inhibition rate, radioactivity incorporated into the fatty acid fraction of the epididymal adipose tissues) [%] | inhibition at 20 mg/kg (fatty acid synthesis; liver, read-out: relative inhibition rate, radioactivity incorporated into the fatty acid fraction of the liver) [%]
1 | CC(CSc1ccc(Cl)cc1)NCCO (centres unmarked) [Example 4, 1-(4-chlorophenylthio)-2-(2-hydroxyethylamino)propane fumarate] | 67.6 | 65.9 |  |  |  |  | 
2 | CCNC(C)CSc1ccc(Cl)cc1 (centres unmarked) [Example 3, 1-(4-chlorophenylthio)-2-ethylaminopropane fumarate] | 69.4 | 40.7 |  |  |  |  | 
3 | CC(N)CSc1ccc(Cl)cc1 (centres unmarked) [1-(4-chlorophenylthio)-2-aminopropane, reference compound] | 85.5 | 69.5 | only a weak transient anorectic effect |  |  |  | 
4 | CN[C@@H](C)CSc1ccc(Cl)cc1 [Example 8, (S)-l-(4-chlorophenylthio)-2-methylaminopropane fumarate] |  |  |  | 38.8** % | 56.1** % |  | 
5 | CNC(C)CSc1ccccc1 (centres unmarked) [1-phenylthio-2-methyl-aminopropane, reference compound] | 112 | 106 |  |  |  |  | 
6 | CNC(C)CSc1ccc(Br)cc1 (centres unmarked) [Example 6, 1-(4-bromophenylthio)-2-methylamino-propane] | 72.1 | 70.8 |  |  |  |  | 
7 | CNC(C)CSc1ccc(Cl)cc1.O=C(O)/C=C/C(=O)O (centres unmarked) [Example 1, 1-(4-chlorophenylthio)-2-methylaminopropane fumarate] | 55.2 | 43.2 |  | 43.9* % | 61.9** % | 58.8 | 46.6
8 | CNC(C)CSc1ccc(F)cc1 (centres unmarked) [Example 5, 1-(4-fluorophenylthio)-2-methylaminopropane] | 66.5 | 57.9 |  |  |  |  | 
9 | CNC(C)CSc1ccc(Cl)c(Cl)c1 (racemic) [Example 7, l-(3,4-dichlorophenylthio)-2-methylamino-propane] | 63.2 | 54.9 |  |  |  |  | 
